Measured values: patent publication US20160115540A1, “PRODRUGS AND DRUGS” (Biogen MA Inc., priority 2013, published 2016)
Structures can show the parent of a compound that is named as a salt.

Test system: kidney
Experiment: Transcriptional profiling on Affymetrix GeneChips, single dose, naïve mice: kidney
Assay type: in vivo, C57BL/6 mice
Details: 100 DMF-vs-Veh, 2 h
Procedure: Treated mice were sacrificed at 2, 7, or 12 hours. Tissues (liver, spleen, kidney, jejunum, cortex, hippocampus, striatum and whole blood) were collected and analyzed by transcriptional profiling on mouse Affymetrix GeneChips.
Tissues (liver, spleen, kidney, jejunum, cortex, hippocampus, striatum and whole blood) were collected and analyzed by transcriptional profiling on mouse Affymetrix GeneChips.
Animals were exposed to CO2 and whole blood collected via cardiac puncture. Two 100 μl aliquots of whole blood were collected in 1.5 mL microcentrifuge tubes and snap frozen in liquid nitrogen. Peripheral (liver, spleen, kidney and jejunum) and CNS brain (cerebellum, hippocampus, striatum and cortex) tissues were harvested and snap frozen in liquid nitrogen, with special care taken to collect tissues of similar size and from the same location. All samples were stored at −80° C. until RNA extraction was conducted.
For RNA preparation, frozen tissues were placed in 2 mL RNAse-free 96-well blocks with 1.5 mL QIAzol Lysis Reagent (QIAgen) and a 3.2 mm stainless steel bead (BioSpec Products, Bartlesville, Okla.). Tissues were disrupted for four cycles of 45 seconds in a Mini-Beadbeater (Biospec Products). RNA was extracted in chloroform and the aqueous phase was mixed with an equal volume of 70% ethanol. Extracted RNA was applied to RNeasy 96 plates and purified by the spin method according to the manufacturer's protocol (RNeasy 96 Universal Tissue Protocol, QIAgen, Hilden Germany).
Automated sample amplifications and biotin labelings were carried out using the NuGEN Ovation RNA Amplification system V2 (Cat #3100), Ovation WB reagent (Cat #1300) and Encore Biotin module (Cat #4200) (NuGEN Technologies, Inc, San Carlos, Calif.) according to manufacturer's recommendations using an Arrayplex automated liquid handler (Beckman Coulter, Indianapolis, Ind.). Two micrograms of biotin labeled sscDNA probe were hybridized to Affymetrix GeneChip Affymetrix HT_MG-430_PM plate arrays with modified conditions as described in Allaire et al. Washing and staining of the hybridized arrays were completed as described in the GeneChip Expression analysis technical manual for HT plate arrays using the Genechip® Array Station (Affymetrix, Santa Clara, Calif.) with modifications as described in Allaire et al. The processed GeneChip® plate arrays were scanned using GeneTitan scanner (Affymetrix, Santa Clara, Calif.).
Affymetrix scans were subject to quality control (QC) measures. These tests included a visual inspection of the distribution of raw signal intensities and an assessment of RNA degradation, relative log expression (RLE), and normalized unsealed standard error (NUSE). All sample scans that passed these QC metrics were included in the analysis.
All CEL files were subjected to GC-content-based Robust Multi-array Average (GCRMA) normalization (version 2.20.0) (Irizarry R A, et al. Nucleic Acids Res 2003; 31:e15; Li C, et al. Genome Biol 2001; 2:[…]0032). Expression levels were log (base 2) transformed.
All calculations and analyses were carried out using R (version 2.11.1) and Bioconductor computational tools (Gentleman R. Springer Science+Business Media 2005).

Compound: COC(=O)/C=C/C(=O)OC [DMF, dimethyl fumarate]
- FC 1200016B10Rik 1428654_PM_at: 1.59
- FC 1200016B10Rik 1452859_PM_at: 1.62
- FC 1438879_PM_at: −1.61
- FC 1439292_PM_at: 2.14
- FC 1440076_PM_at: 3.71
- FC 1440084_PM_at: −1.57
- FC 1440304_PM_at: −1.68
- FC 1440457_PM_at: 1.76
- FC 1440660_PM_at: −1.56
- FC 1441155_PM_at: 1.51
- FC 1441360_PM_at: 1.55
- FC 1441413_PM_at: 1.88
- FC 1441455_PM_at: 1.58
- FC 1441482_PM_at: −2.08
- FC 1441484_PM_at: −1.79
- FC 1441518_PM_at: −1.67
- FC 1441794_PM_at: −1.72
- FC 1442422_PM_at: 1.74
- FC 1442483_PM_at: −1.59
- FC 1442504_PM_at: −1.70
- FC 1442506_PM_at: 5.76
- FC 1442671_PM_at: 1.55
- FC 1442725_PM_at: −1.53
- FC 1442928_PM_at: 1.66
- FC 1443100_PM_at: −1.63
- FC 1443109_PM_at: 1.69
- FC 1443289_PM_at: −1.65
- FC 1443335_PM_at: −1.78
- FC 1443546_PM_at: 1.74
- FC 1443566_PM_at: −1.76
- FC 1443673_PM_x_at: 2.06
- FC 1444021_PM_at: 3.24
- FC 1444057_PM_at: 1.75
- FC 1444111_PM_at: −1.67
- FC 1444212_PM_at: 1.57
- FC 1444227_PM_at: 1.56
- FC 1444265_PM_at: 1.93
- FC 1445290_PM_at: −1.52
- FC 1445349_PM_at: −1.70
- FC 1445600_PM_at: −1.65
- FC 1445664_PM_at: −1.60
- FC 1446075_PM_at: −1.62
- FC 1446172_PM_at: 1.85
- FC 1446621_PM_at: 1.74
- FC 1446921_PM_at: 1.58
- FC 1447172_PM_at: −1.61
- FC 1447396_PM_at: −1.90
- FC 1447411_PM_at: 4.68
- FC 1700012D14Rik 1438880_PM_at: −1.55
- FC 1810013L24Rik 1431018_PM_at: 1.50
- FC 2200002K05Rik 1428400_PM_at: −1.79
- FC 2210403K04Rik 1428562_PM_at: 1.86
- FC 2210416J07Rik 1432665_PM_at: −1.87
- FC 2410089E03Rik 1443422_PM_at: −1.72
- FC 2810029C07Rik 1428686_PM_at: −1.58
- FC 2900011L18Rik 1432757_PM_at: 1.62
- FC 4833418N02Rik 1430686_PM_at: −1.51
- FC 4921509J17Rik 1430244_PM_at: 1.60
- FC 4932416J16Rik 1430783_PM_at: −1.67
- FC 4933427G17Rik 1431905_PM_s_at: −1.65
- FC 5830487K18Rik 1432625_PM_at: −1.90
- FC 6430571L13Rik 1439669_PM_at: −1.85
- FC 9130221J17Rik (1443159_PM_at): 9.22
- FC 9530086O07Rik 1430392_PM_at: −1.52
- FC A130012E19Rik 1440671_PM_at: 1.56
- FC AI845619 1442726_PM_s_at: 5.44
- FC Aars 1451083_PM_s_at: 1.53
- FC Abce1 1442071_PM_at: 1.53
- FC Acvr2b 1419140_PM_at: −1.51
- FC Adamts1 1450716_PM_at: 1.86
- FC Adamts15 1427056_PM_at: −2.26
- FC Ahsa2 1435160_PM_at: 1.64
- FC Aldh2 1437410_PM_at: 1.69
- FC Alkbh1 1434660_PM_at: 1.53
- FC Anxa7 1438764_PM_at: 1.88
- FC Aox1 (1419435_PM_at): 2.46
- FC Arl5b 1437884_PM_at: 1.93
- FC Arpc5l 1441190_PM_at: 1.70
- FC Asns 1433966_PM_x_at: 2.54
- FC Asns 1451095_PM_at: 3.03
- FC Atf4 1438992_PM_x_at: 1.77
- FC Atf4 1448135_PM_at: 2.12
- FC Atp1a2 1452308_PM_a_at: 1.84
- FC BC005512 /// F630007L15Rik /// Gm6958 1426936_PM_at: −1.67
- FC BC005512 /// F630007L15Rik /// Gm6958 1435628_PM_x_at: −1.72
- FC BC026585 1445857_PM_at: −1.51
- FC BC031353 1439293_PM_at: −1.84
- FC Bach1 1440831_PM_at: 1.90
- FC Bach1 1449311_PM_at: 2.55
- FC Bag3 1422452_PM_at: 2.03
- FC Baiap2 1425656_PM_a_at: 1.51
- FC Baz1a 1433599_PM_at: 2.51
- FC Baz1a /// LOC100505185 1447930_PM_at: 2.56
- FC Bcl11b 1438784_PM_at: −1.52
- FC Brd2 1423502_PM_at: 1.83
- FC Brd2 1437210_PM_a_at: 2.07
- FC Btbd10 1438578_PM_a_at: 1.60
- FC C730027H18Rik 1442546_PM_at: −1.57
- FC Cars 1452394_PM_at: 1.63
- FC Cbr3 (1427912_PM_at): 3.04
- FC Ccdc30 1430593_PM_at: −2.01
- FC Ccdc117 1452218_PM_at: 1.54
- FC Cenpe 1435005_PM_at: −2.20
- FC Chac1 1451382_PM_at: 31.00
- FC Chd1 1420990_PM_at: 1.76
- FC Chd1 1450077_PM_at: 1.67
- FC Cltc 1439094_PM_at: 2.07
- FC Cyp27b1 1427372_PM_at: −3.22
- FC Cyr61 1438133_PM_a_at: 2.64
- FC D16Ertd778e 1445089_PM_at: −2.60
- FC Dcbld1 1418966_PM_a_at: 1.78
- FC Ddit3 1443897_PM_at: 3.97
- FC Dnaja4 1434196_PM_at: 1.63
- FC Dnajb4 1431734_PM_a_at: 2.15
- FC Dnajb4 1451177_PM_at: 2.48
- FC Dusp4 1428834_PM_at: 2.09
- FC Dusp5 1437199_PM_at: 3.68
- FC E130306D19Rik 1436725_PM_at: −1.64
- FC Eid3 1429350_PM_at: 1.84
- FC Eif2c3 1435904_PM_at: 1.53
- FC Esd (1441604_PM_at): 1.62
- FC Fam126a 1450724_PM_at: 1.70
- FC Fbxo30 1436550_PM_at: 1.81
- FC Fgd3 1433398_PM_at: 1.66
- FC Fgf1 1441042_PM_at: −2.91
- FC Fgfbp1 1419086_PM_at: 1.81
- FC Fn3k 1442436_PM_at: −1.60
- FC Fras1 1440765_PM_at: −1.73
- FC Gadd45a 1449519_PM_at: 1.75
- FC Gclc (1424296_PM_at): 1.70
- FC Gdap10 1420342_PM_at: 1.52
- FC Gdf15 1418949_PM_at: 5.39
- FC Gm10374 1436357_PM_at: −1.52
- FC Gm10804 1441759_PM_at: −1.67
- FC Gsta3 (1423437_PM_at): 2.01
- FC Gt(ROSA)26Sor 1452239_PM_at: 1.62
- FC Hectd2 1433944_PM_at: 1.67
- FC Hinfp 1440255_PM_at: 1.57
- FC Hk2 1422612_PM_at: 2.72
- FC Hmox1 1448239_PM_at: 6.27
- FC Hnf1b 1421224_PM_a_at: −1.77
- FC Hnf1b 1451687_PM_a_at: −1.82
- FC Hsp90aa1 1426645_PM_at: 1.64
- FC Hsp90aa1 1437497_PM_a_at: 1.55
- FC Hspa1a 1452388_PM_at: 2.35
- FC Hspa1b 1427126_PM_at: 3.65
- FC Hspa1b 1427127_PM_x_at: 3.37
- FC Hspa1b 1452318_PM_a_at: 1.70
- FC Hspa4l 1439093_PM_at: 1.67
- FC Hspa8 /// LOC624853 1431182_PM_at: 2.63
- FC Hsph1 1423566_PM_a_at: 2.40
- FC Igf1r 1446303_PM_at: −1.66
- FC Jmjd6 1420056_PM_s_at: 1.52
- FC Jmjd6 1420057_PM_at: 1.54
- FC Jun 1448694_PM_at: 1.50
